Consider 45 compounds from patent US20250326772A1, “MRGPRX2 ANTAGONISTS, PHARMACEUTICAL COMPOSITION INCLUDING MRGPRX2 ANTAGONIST, AND METHOD OF TREATING MRGPRX2-MEDIATED DISEASE OR DISORDER” (KYORIN PHARMACEUTICAL CO., LTD., priority 2024, published 2025).

Broadly, the IC50 is the concentration that inhibits the measured activity by half. Higher therefore signals weaker potency in that assay.

The first experiment addresses T1, MRGPRX2 (Homo sapiens, UniProt Q96LB1).
T1 sequence (Q96LB1 1-330): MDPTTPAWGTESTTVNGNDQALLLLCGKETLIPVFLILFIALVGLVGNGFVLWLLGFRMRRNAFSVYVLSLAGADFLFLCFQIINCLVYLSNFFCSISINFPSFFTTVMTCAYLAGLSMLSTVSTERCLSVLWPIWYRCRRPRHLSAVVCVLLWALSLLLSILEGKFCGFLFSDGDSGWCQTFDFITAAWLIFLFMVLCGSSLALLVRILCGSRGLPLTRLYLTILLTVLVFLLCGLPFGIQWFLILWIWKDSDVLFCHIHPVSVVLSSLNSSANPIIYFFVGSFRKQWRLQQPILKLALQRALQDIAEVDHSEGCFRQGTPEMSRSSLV
The experiment is described as follows: MRGPRX2 reporter cell assay (NFAT-RE luciferase, Substance P stimulation). The format is cell-based. The conditions noted are these: U2OS cells stably transfected with MRGPRX2 and NFAT-RE luciferase reporter; Substance P at EC80. On the procedure: MRGPRX2 Reporter Cell Assays U2OS cells (ATCC, Manassas, VA) were stably transfected with MRGPRX2 expression clones (GeneCopoeia, Rockville, MD) and the pGL4.30 [luc2P/NFAT-RE/Hygro] reporter plasmid (Promega, Madison, WI). Clonal cells were maintained in Growth Media (McCoy's 5A, 10% FBS, 495 μg/ml hygromycin, 2 μg/ml puromycin, 100 units/ml penicillin, and 100 ug/ml streptomycin). The day before assay, cells were plated to white 384-well microplates at 3000 (MRGPRX2) cells/well in 10 ul Assay Media (McCoy's 5A, 2% charcoal dextran stripped FBS, 100 units/ml penicillin, and 100 ug/ml streptomycin) (Gibco, Thermo Fisher) and allowed to adhere overnight. The following day, serially diluted compound stocks were added directly to the cells (final DMSO concentration of 0.5%) and pre-incubated for 30 minutes at 37° C., 5% CO2. The final concentration of Substance P (Tocris, Minneapolis, MN, or PEPTIDE INSTITUTE, Osaka, Japan) corresponding to EC80 was added to stimulate the (MRGPRX2) cells. Cells were returned to the incubator for 6 hrs, after which 5 ul of ONE-GLO substrate (Promega) was added. Luminescence was read within 15 minutes (BioTek, Winooski, VT or infinite M1000Pro, Tecan Japan, Kanagawa, Japan). Percent inhibition for each test compound was calculated using the formula: […] where: • A=the luminescence count of the “test compound” well • B=the median luminescence count of the “Vehicle (0.5% DMSO)” wells • C═the median luminescence count of the “Vehicle (0.5% DMSO)+5 uM of substance P” wells The mean percent inhibition of each concentration of “test compound” was used to generate dose-response curves. IC50 values were calculated using a four-parameter logistic fit to the data using GraphPad Prism software. • +++: […]
Background: A reporter such as luciferase makes a cellular process visible.
The compound `COC(=O)N[C@]1(C)COc2c(-c3[nH]c4ncccc4c3-c3cccnc3OC(F)F)c(C(F)F)nn2C1` [EX. 492] registered an IC50 of 1.9 nM. Compound `CCc1nn2c(c1-c1[nH]c3ncccc3c1-c1cn(C)nc1OC(F)F)OC[C@@H](NC(=O)OC)C2` [EX. 572] had an IC50 of 3.6 nM. Same read-out and setting: the result for `Cn1cc(-c2c(-c3c(C(F)F)nn4c3OC[C@@H](NC(=O)C3CC3)C4)[nH]c3ncccc23)c(OC(F)F)n1` [EX. 559] reads 3 nM; that for `Cn1cc(-c2c(-c3c(C(F)F)nn4c3OCCC4)[nH]c3ncccc23)c(OC(F)F)n1` [EX. 272], 2.9 nM.

With `CO[C@]1(C)COc2c(-c3[nH]c4ncccc4c3-c3cn(C)nc3OC(F)F)c(C(F)F)nn2C1` [EX. 435], the IC50 was 4.1 nM.

The experiment is the same for the next values; noted with them: U2OS cells stably transfected with MRGPRX2 and NFAT-RE luciferase reporter; Substance P at EC80; class symbols.
In turn, `[2H]C([2H])([2H])Oc1ccc(F)cc1-c1[nH]c2ncccc2c1-c1ccccc1C#N` [EX. 346] registered an IC50 of less than 10 nM.

For the compound `Cn1cc(-c2c(-c3c(C(F)F)nn4c3OC[C@@H](OCC(N)=O)C4)[nH]c3ncccc23)c(OC(F)F)n1` [EX. 583, (S)-2-((3-(3-(3-(difluoromethoxy)-1-methyl-1H-pyrazol-4-yl)-1H-pyrrolo[2,3-b]pyridin-2-yl)-2-(difluoromethyl)-6,7-dihydro-5H-pyrazolo[5,1-b] [1,3]oxazin-6-yl)oxy) acetamide], the IC50 was less than 10 nM. For `[2H]C([2H])([2H])Oc1ccc(C#N)c(-c2c(-c3c(C)nn4c3OCC[C@@H]4C)[nH]c3ncccc23)c1` [EX. 176], the IC50 was less than 10 nM. On the same count and under the same terms, the result for `Cn1cc(-c2c(-c3c(C(F)F)nn4c3OC[C@@](C)(OCCO)C4)[nH]c3ncccc23)c(OC(F)F)n1` [EX. 493] reads less than 10 nM; that for `COC(=O)N[C@]1(C)COc2c(-c3[nH]c4ncccc4c3-c3cccnc3OC(F)F)c(C(F)F)nn2C1` [EX. 492], less than 10 nM. The same measure, in the same setting: the result for `COc1nsc(OC)c1-c1[nH]c2ncccc2c1-c1ccccc1C#N` [EX. 137] reads less than 10 nM. Compound `COc1ccc(F)c(-c2c(-c3cc(F)ccc3OC)[nH]c3ncccc23)c1` [EX. 345] had an IC50 of less than 10 nM.

In turn, `C[C@H](O)CN(C)C(=O)N[C@@H]1COc2c(-c3[nH]c4ncccc4c3-c3cn(C)nc3OC(F)F)c(C(F)F)nn2C1` [EX. 595, 3-((S)-3-(3-(3-(difluoromethoxy)-1-methyl-1H-pyrazol-4-yl)-1H-pyrrolo[2,3-b]pyridin-2-yl)-2-(difluoromethyl)-6,7-dihydro-5H-pyrazolo[5,1-b] [1,3]oxazin-6-yl)-1-((S)-2-hydroxypropyl)-1-methylurea] displayed an IC50 of less than 10 nM. The same measure, in the same setting: the result for `CS(=O)(=O)N[C@@H]1COc2c(-c3[nH]c4ncccc4c3-c3cccnc3C#N)c(C(F)F)nn2C1` [EX. 522] reads less than 10 nM. On the same count and under the same terms, the result for `[2H]C([2H])([2H])Oc1ccc(C#N)c(-c2c(-c3c(C)nn4c3OCCC4)[nH]c3ncccc23)c1` [EX. 239] reads less than 10 nM; that for `O[C@@H]1COc2c(-c3[nH]c4ncccc4c3-c3cc(F)ccc3OC(F)F)c(C(F)F)nn2C1` [EX. 468], less than 10 nM; that for `COc1ccc(C#N)c(-c2c(-c3c(C)nn4cccnc34)[nH]c3ncccc23)c1` [EX. 245], less than 10 nM. Still for that read-out and setting: the result for `CCc1nn2c(c1-c1[nH]c3ncccc3c1-c1cn(C)nc1OC(F)F)OC[C@@H](NC(=O)OC)C2` [EX. 572] reads less than 10 nM; that for `COCCO[C@@H]1COc2c(-c3[nH]c4ncccc4c3-c3cn(C)nc3OC(F)F)c(C(F)F)nn2C1` [EX. 533], less than 10 nM; that for `Cn1cc(-c2c(-c3c(C(F)F)nn4c3OC[C@@H](NC(=O)[C@@H]3C[C@H]3F)C4)[nH]c3ncccc23)c(OC(F)F)n1` [EX. 551], less than 10 nM.

The compound `COC(=O)N[C@@H]1COc2c(-c3[nH]c4ncccc4c3-c3cccnc3OC(F)F)c(C(F)F)nn2C1` [EX. 512, methyl(S)-(3-(3-(2-(difluoromethoxy)pyridin-3-yl)-1H-10 pyrrolo[2,3-b]pyridin-2-yl)-2-(difluoromethyl)-6,7-dihydro-5H-pyrazolo[5,1-b] [1,3]oxazin-6-yl) carbamate] showed an IC50 of less than 10 nM. `COc1ccc(F)cc1-c1[nH]c2ncccc2c1C1=CC(C)(C)CCC1OC` (centres unmarked) [EX. 351, 2-(5-fluoro-2-methoxyphenyl)-3-(6-methoxy-3,3-dimethylcyclohex-1-en-1-yl)-1H-pyrrolo[2,3-b]pyridine] came in with an IC50 of 100 to 1000 nM.

In the case of `COc1ncccc1-c1c(-c2c(C(F)F)nn3c2OC[C@@H](F)C3)[nH]c2ncccc12` [EX. 446], the IC50 is less than 10 nM.

The compound `CCO[C@@H]1COc2c(-c3[nH]c4ncccc4c3-c3cn(C)nc3OC(F)F)c(C(F)F)nn2C1` [EX. 532] gave an IC50 of less than 10 nM. Same read-out and setting: the result for `COc1ncccc1-c1c(-c2c(C(F)F)nn3c2OC[C@@H](O)C3)[nH]c2ncccc12` [EX. 462] reads less than 10 nM; that for `COc1ccc(C#N)c(-c2c(-c3c(C)nn4c3OCC(N)C4)[nH]c3ncccc23)c1` (centres unmarked) [EX. 359], less than 10 nM; that for `N#Cc1ccccc1-c1c(-c2c(C(F)F)nn3c2OCC(O)C3)[nH]c2ncccc12` (centres unmarked) [EX. 203], less than 10 nM. Still for that read-out and setting: the same measure for `COc1ccc(F)c(-c2c(-c3cc(F)ccc3OC)[nH]c3ncccc23)c1` [EX. 323]: less than 10 nM; for `COc1ccc(C#N)c(-c2c(-c3c(C(F)F)nn4c3OCCC4)[nH]c3ncccc23)c1` [EX. 242]: less than 10 nM; for `Cn1cc(-c2c(-c3c(C(F)F)nn4c3OC[C@@H](NC(=O)C3CC3)C4)[nH]c3ncccc23)c(OC(F)F)n1` [EX. 559]: less than 10 nM.

In the case of `FC(F)Oc1nnccc1-c1c(-c2c(C(F)F)nn3c2OCCC3)[nH]c2ncccc12` [EX. 388, 3-(3-(3-(difluoromethoxy)pyridazin-4-yl)-1H-pyrrolo[2,3-b]pyridin-2-yl)-2-(difluoromethyl)-6,7-dihydro-5H-pyrazolo[5,1-b] [1,3]oxazine], the IC50 was 10 to 100 nM. Take `[2H]C([2H])([2H])Oc1ccc(C#N)c(-c2c(-c3c(C)nn4cc(OC)cnc34)[nH]c3ncccc23)c1` [EX. 179]: the IC50 was less than 10 nM. The compound `COC(=O)N[C@@H]1COc2c(-c3[nH]c4ncccc4c3-c3csnc3OC(F)F)c(C(F)F)nn2C1` [EX. 518] yielded an IC50 of less than 10 nM. On the same count and under the same terms, the result for `Cn1cc(C(=O)N[C@@H]2COc3c(-c4[nH]c5ncccc5c4-c4cn(C)nc4OC(F)F)c(C(F)F)nn3C2)cn1` [EX. 562] reads less than 10 nM; that for `Cn1cc(-c2c(-c3c(C(F)F)nn4c3OC[C@@H](NC(=O)C3(C(N)=O)CC3)C4)[nH]c3ncccc23)c(OC(F)F)n1` [EX. 585], less than 10 nM. As to `O[C@@H]1COc2c(-c3[nH]c4ncccc4c3-c3ccccc3)c(C(F)F)nn2C1` [EX. 465], the IC50 is less than 10 nM.

As to `N#Cc1ccccc1-c1c(-c2cn[nH]c2C(F)F)[nH]c2nccc(F)c12` [EX. 81], the IC50 is less than 10 nM. On the same count and under the same terms, the same measure for `Cc1cc(-c2c(-c3c(C(F)F)nn4c3OC[C@@H](F)C4)[nH]c3ncccc23)c(C#N)s1` [EX. 450]: less than 10 nM; for `[2H]c1cnc2[nH]c(-c3c(C)nn4c3OCC4)c(-c3cc(OC([2H])([2H])[2H])ccc3C#N)c2c1` [EX. 218]: less than 10 nM. `Cn1cc(-c2c(-c3c(C(F)F)nn4c3OCCC4)[nH]c3ncccc23)c(OC(F)F)n1` [EX. 272] had an IC50 of less than 10 nM. On the same count and under the same terms, the same measure for `COC(=O)N[C@@H]1COc2c(-c3[nH]c4ncccc4c3-c3cn(C)nc3OC(F)F)c(C)nn2C1` [EX. 546]: less than 10 nM; for `N[C@@H]1COc2c(-c3[nH]c4ncccc4c3-c3csnc3OC(F)F)c(C(F)F)nn2C1` [EX. 425]: less than 10 nM; for `COc1ncc(F)cc1-c1c(-c2c(C(F)F)nn3c2OC[C@@H](O)C3)[nH]c2ncccc12` [EX. 476]: less than 10 nM. Same read-out and setting: the result for `Cn1cc(-c2c(-c3c(C(F)F)nn4c3OCC(O)C4)[nH]c3ncccc23)c(OC(F)F)n1` (centres unmarked) [EX. 426, 3-(3-(3-(difluoromethoxy)-1-methyl-1H-pyrazol-4-yl)-1H-pyrrolo[2,3-b]pyridin-2-yl)-2-(difluoromethyl)-6,7-dihydro-5H-pyrazolo[5,1-b] [1,3]oxazin-6-ol] reads less than 10 nM; that for `Cn1cc(-c2c(-c3c(C(F)F)nn4c3OC[C@@H](NS(=O)(=O)CCCO)C4)[nH]c3ncccc23)c(OC(F)F)n1` [EX. 581], less than 10 nM. Same read-out and setting: the result for `Cn1cc(-c2c(-c3c(C(F)F)nn4c3OC[C@@H](NS(=O)(=O)CCO)C4)[nH]c3ncccc23)c(OC(F)F)n1` [EX. 577] reads less than 10 nM. As to `Cn1cc(-c2c(-c3c(C(F)F)nn4c3OC[C@@](C)(O)C4)[nH]c3ncccc23)c(OC(F)F)n1` [EX. 481], the IC50 was less than 10 nM.

As to `CO[C@]1(C)COc2c(-c3[nH]c4ncccc4c3-c3cn(C)nc3OC(F)F)c(C(F)F)nn2C1` [EX. 435], the IC50 is less than 10 nM.

Take `Cn1cc(-c2c(-c3c(C(F)F)nn4c3OC[C@@H](NCCO)C4)[nH]c3ncccc23)c(OC(F)F)n1` [EX. 558]: the IC50 was less than 10 nM. Turning to `CO[C@]1(C)COc2c(-c3[nH]c4ncccc4c3-c3cccnc3OC(F)F)c(C(F)F)nn2C1` [EX. 439], the IC50 is less than 10 nM.
